We go through 1 compound from US20240189375A1, “COMPOSITION COMPRISING A […] AN EXTRACT THEREOF FOR USE IN THE TREATMENT OF A VIRAL DISEASE” (priority 2021, published 2024).

This test concerns the target T1, rACE2 (Homo sapiens, UniProt Q9BYF1).
T1 construct: purchased R&D systems, Zug
The test can be described thus: ACE2 enzymatic activity assay with fluorogenic substrate. In kind it is biochemical. As to conditions: range of 0.045 nM to 11100 nM; positive control; read-out: half maximal inhibitory concentration (IC50) of ACE2 catalytic activity. On the procedure:
The ACE2 enzymatic activity assay was designed to measure the exopeptidase activity of ACE2 and to screen for inhibition. Activity was measured using a commercially available synthetic fluorogenic substrate for ACE2 and rACE2 (R&D systems, Zug). rACE2 was used to generate a standard curve using the assay buffer, 75 mM TRIS, 1M NaCl, ph7.5. Natural extract screening was performed using 100 ng/ml rACE2 and 15 μM ACE2 fluorogenic substrate plus the Chlorella extracts in various concentrations. Subsequently the mixture was incubated for 1 h at 37° C. and measured using Flexstation 3 (Molecular Devices, San Jose, CA, USA) at excitation 320 nm and emission 405 nm.

T1 sequence (Q9BYF1 18-805): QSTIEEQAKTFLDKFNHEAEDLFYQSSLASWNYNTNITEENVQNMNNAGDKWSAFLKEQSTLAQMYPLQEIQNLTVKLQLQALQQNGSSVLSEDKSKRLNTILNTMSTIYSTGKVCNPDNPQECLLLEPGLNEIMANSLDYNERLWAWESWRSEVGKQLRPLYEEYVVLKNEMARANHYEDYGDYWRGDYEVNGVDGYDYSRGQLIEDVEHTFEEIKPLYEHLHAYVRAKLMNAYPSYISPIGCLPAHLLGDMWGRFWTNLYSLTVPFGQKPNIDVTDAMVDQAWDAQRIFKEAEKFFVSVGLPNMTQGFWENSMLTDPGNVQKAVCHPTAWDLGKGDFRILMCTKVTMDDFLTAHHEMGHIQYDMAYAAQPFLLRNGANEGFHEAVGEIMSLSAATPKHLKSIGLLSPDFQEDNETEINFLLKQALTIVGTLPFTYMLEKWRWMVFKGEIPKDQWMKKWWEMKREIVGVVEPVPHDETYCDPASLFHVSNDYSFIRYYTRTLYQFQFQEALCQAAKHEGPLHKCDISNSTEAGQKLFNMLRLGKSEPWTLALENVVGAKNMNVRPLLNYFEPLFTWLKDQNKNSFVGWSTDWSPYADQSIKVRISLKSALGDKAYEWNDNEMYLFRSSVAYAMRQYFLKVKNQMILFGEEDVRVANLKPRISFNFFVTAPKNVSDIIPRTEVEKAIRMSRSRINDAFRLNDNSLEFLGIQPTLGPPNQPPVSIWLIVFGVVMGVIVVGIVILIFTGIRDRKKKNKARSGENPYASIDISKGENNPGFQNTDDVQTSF

Consider `CC(C)C[C@H](N[C@@H](Cc1cncn1Cc1cc(Cl)cc(Cl)c1)C(=O)O)C(=O)O` [MLN-4760], for which the IC50 amounted to 0.19 nM.
